Data as given in patent US20250382305A1 (PTC THERAPEUTICS, INC., priority 2022, published 2025).

Columns and labels:
[1] = system: Total ATXN3 (tATXN3) protein; assay: Endogenous Total ATXN3 (tATXN3) Protein Assay (MSD immunoassay of cell lysates); format: cell-based; details: average IC50, total ATXN3 protein in cell lysate after 48 h with compound (Table 1)
Summary of the method: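 Cells in DMEM/10% FBS were plated at 10,000 per well onto 7-point, 3.16-fold compound dilutions in duplicate for 48 h at 37° C, then lysed. Total ATXN3 in lysates was measured by MSD sandwich immunoassay: mouse anti-ATXN3 capture, rabbit anti-ATXN3 detection, SULFO-TAG anti-rabbit. Average IC50 was reported in star bins.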

ATXN3 pre-mRNA = assay: RT-qPCR Assay to Quantify Exon 4 Skipping in ATXN3 pre-mRNA in Cells; format: cell-based; details: percent exon 4 skipping in ATXN3 pre-mRNA, RT-qPCR of cell lysates; average IC50
Summary of the method: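 Cells plated at 10,000/well onto a 7-point, 3.16-fold DMSO dilution series (duplicates), incubated 24 h at 37 °C, then lysed. Exon 4 skipping measured by one-step RT-qPCR (48 °C RT, 40 cycles); IC50 interpolated from dose-response fit of percent skipping.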

SMILES	IC50 [1] [nM]	IC50 (ATXN3 pre-mRNA) [nM]
N[C@@H]1CC=CC[C@H]1c1sc2c(NCc3cccs3)cc(Cl)nc2c1C#CCCCO.N[C@H]1CC=CC[C@@H]1c1sc2c(NCc3cccs3)cc(Cl)nc2c1C#CCCCO (mixture of isomers) [Compound 175, 5-(2-((1R,6R)-6-aminocyclohex-3-en-1-yl)-5-chloro-7-((thiophen-2-ylmethyl)amino)thieno[3,2-b]pyridin-3-yl)pent-4-yn-1-ol and 5-(2-((1S,6S)-6-aminocyclohex-3-en-1-yl)-5-chloro-7-((thiophen-2-ylmethyl)amino)thieno[3,2-b]pyridin-3-yl)pent-4-yn-1-ol]	≤ 30	≤ 30
CC#Cc1c(C2[C@@H](N)CCCC2(F)F)sc2c(NCc3cccs3)cc(Cl)nc12.CC#Cc1c(C2[C@H](N)CCCC2(F)F)sc2c(NCc3cccs3)cc(Cl)nc12 (mixture of isomers) [Compound 208, 2-((6R)-6-amino-2,2-difluorocyclohexyl)-5-chloro-3-(prop-1-yn-1-yl)-N-(thiophen-2-ylmethyl)thieno[3,2-b]pyridin-7-amine and 2-((6S)-6-amino-2,2-difluorocyclohexyl)-5-chloro-3-(prop-1-yn-1-yl)-N-(thiophen-2-ylmethyl)thieno[3,2-b]pyridin-7-amine]	≤ 30	≤ 30
N[C@@H]1CC=CC[C@H]1c1sc2c(NCc3cccs3)cc(Cl)nc2c1I.N[C@H]1CC=CC[C@@H]1c1sc2c(NCc3cccs3)cc(Cl)nc2c1I (mixture of isomers) [Compound 209, 2-((1R,6R)-6-aminocyclohex-3-en-1-yl)-5-chloro-3-iodo-N-(thiophen-2-ylmethyl)thieno[3,2-b]pyridin-7-amine and 2-((1S,6S)-6-aminocyclohex-3-en-1-yl)-5-chloro-3-iodo-N-(thiophen-2-ylmethyl)thieno[3,2-b]pyridin-7-amine]	≤ 30	≤ 30
N[C@@H]1CCCO[C@H]1c1sc2c(NCc3cccs3)cc(Cl)nc2c1C#CCCO.N[C@H]1CCCO[C@@H]1c1sc2c(NCc3cccs3)cc(Cl)nc2c1C#CCCO (mixture of isomers) [Compound 213, 4-(2-((2R,3R)-3-aminotetrahydro-2H-pyran-2-yl)-5-chloro-7-((thiophen-2-ylmethyl)amino)thieno[3,2-b]pyridin-3-yl)but-3-yn-1-ol and 4-(2-((2S,3S)-3-aminotetrahydro-2H-pyran-2-yl)-5-chloro-7-((thiophen-2-ylmethyl)amino)thieno[3,2-b]pyridin-3-yl)but-3-yn-1-ol]	≤ 30	≤ 30
N[C@@H]1CC=CC[C@H]1c1sc2c(NCc3cccs3)nc(Cl)nc2c1Cl.N[C@H]1CC=CC[C@@H]1c1sc2c(NCc3cccs3)nc(Cl)nc2c1Cl (mixture of isomers) [Compound 240, 6-((1R,6R)-6-aminocyclohex-3-en-1-yl)-2,7-dichloro-N-(thiophen-2-ylmethyl)thieno[3,2-d]pyrimidin-4-amine and 6-((1S,6S)-6-aminocyclohex-3-en-1-yl)-2,7-dichloro-N-(thiophen-2-ylmethyl)thieno[3,2-d]pyrimidin-4-amine]	≤ 30	≤ 30
N[C@H]1CCCO[C@@H]1c1sc2c(NCc3cccs3)cc(Cl)nc2c1C#CCO (mixture of isomers) [Compound 252, 3-(2-((2R,3R)-3-aminotetrahydro-2H-pyran-2-yl)-5-chloro-7-((thiophen-2-ylmethyl)amino)thieno[3,2-b]pyridin-3-yl)prop-2-yn-1-ol and 3-(2-((2S,3S)-3-aminotetrahydro-2H-pyran-2-yl)-5-chloro-7-((thiophen-2-ylmethyl)amino)thieno[3,2-b]pyridin-3-yl)prop-2-yn-1-ol]	30 to 300	≤ 30
N[C@@H]1CCCO[C@H]1c1sc2c(NCc3ccco3)nc(Cl)nc2c1C#CCO.N[C@H]1CCCO[C@@H]1c1sc2c(NCc3ccco3)nc(Cl)nc2c1C#CCO (mixture of isomers) [Compound 255, 3-(6-((2R,3R)-3-aminotetrahydro-2H-pyran-2-yl)-2-chloro-4-((furan-2-ylmethyl)amino)thieno[3,2-d]pyrimidin-7-yl)prop-2-yn-1-ol and 3-(6-((2S,3S)-3-aminotetrahydro-2H-pyran-2-yl)-2-chloro-4-((furan-2-ylmethyl)amino)thieno[3,2-d]pyrimidin-7-yl)prop-2-yn-1-ol]	30 to 300	≤ 30
N[C@@H]1CCCC[C@H]1c1sc2c(NCc3cccs3)cc(Cl)nc2c1COC(F)F.N[C@H]1CCCC[C@@H]1c1sc2c(NCc3cccs3)cc(Cl)nc2c1COC(F)F (mixture of isomers) [Compound 257, 2-((1S,2S)-2-aminocyclohexyl)-5-chloro-3-((difluoromethoxy)methyl)-N-(thiophen-2-ylmethyl)thieno[3,2-b]pyridin-7-amine and 2-((1R,2R)-2-aminocyclohexyl)-5-chloro-3-((difluoromethoxy)methyl)-N-(thiophen-2-ylmethyl)thieno[3,2-b]pyridin-7-amine]	30 to 300	≤ 30
N[C@@H]1COCC[C@H]1c1sc2c(NCc3cccs3)cc(Cl)nc2c1Cl.N[C@H]1COCC[C@@H]1c1sc2c(NCc3cccs3)cc(Cl)nc2c1Cl (mixture of isomers) [Compound 272, 2-((3R,4S)-3-aminotetrahydro-2H-pyran-4-yl)-3,5-dichloro-N-(thiophen-2-ylmethyl)thieno[3,2-b]pyridin-7-amine and 2-((3S,4R)-3-aminotetrahydro-2H-pyran-4-yl)-3,5-dichloro-N-(thiophen-2-ylmethyl)thieno[3,2-b]pyridin-7-amine]	30 to 300	30 to 300
N[C@@H]1CCCCC1c1sc2c(NCc3cccs3)cc(Cl)nc2c1C(F)F.N[C@H]1CCCCC1c1sc2c(NCc3cccs3)cc(Cl)nc2c1C(F)F (mixture of isomers) [Compound 279, 2-((2R)-2-aminocyclohexyl)-5-chloro-3-(difluoromethyl)-N-(thiophen-2-ylmethyl)thieno[3,2-b]pyridin-7-amine and 2-((2S)-2-aminocyclohexyl)-5-chloro-3-(difluoromethyl)-N-(thiophen-2-ylmethyl)thieno[3,2-b]pyridin-7-amine]	30 to 300	30 to 300
N[C@@H]1C[C@@H]2C[C@@H]2C[C@H]1c1sc2c(NCc3cccs3)cc(Cl)nc2c1Br.N[C@H]1C[C@H]2C[C@H]2C[C@@H]1c1sc2c(NCc3cccs3)cc(Cl)nc2c1Br (mixture of isomers) [Compound 290, 2-((1R,3R,4R,6S)-4-aminobicyclo[4.1.0]heptan-3-yl)-3-bromo-5-chloro-N-(thiophen-2-ylmethyl)thieno[3,2-b]pyridin-7-amine and 2-((1S,3S,4S,6R)-4-aminobicyclo[4.1.0]heptan-3-yl)-3-bromo-5-chloro-N-(thiophen-2-ylmethyl)thieno[3,2-b]pyridin-7-amine]	30 to 300	30 to 300
C[C@@H]1C=CC[C@H](c2sc3c(NCc4cccs4)cc(Cl)nc3c2Br)[C@H]1N.C[C@H]1C=CC[C@@H](c2sc3c(NCc4cccs4)cc(Cl)nc3c2Br)[C@@H]1N (mixture of isomers) [Compound 294, 2-((1R,5S,6R)-6-amino-5-methylcyclohex-3-en-1-yl)-3-bromo-5-chloro-N-(thiophen-2-ylmethyl)thieno[3,2-b]pyridin-7-amine and 2-((1S,5R,6S)-6-amino-5-methylcyclohex-3-en-1-yl)-3-bromo-5-chloro-N-(thiophen-2-ylmethyl)thieno[3,2-b]pyridin-7-amine]	30 to 300	30 to 300
